Results on ten compounds are retold here after patent US9487489B2, “Halogen-substituted pyrazole derivatives as pest-control agents” (BAYER CROPSCIENCE AKTIENGESELLSCHAFT, priority 2013, dated 2016).

The test system of assay [1] is adult dog ticks (Rhipicephalus sanguineus). Put plainly: Rhipicephalus sanguineus in vitro contact test with adult brown dog ticks (T2). Particulars: after 48 h. An outline of the steps:
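Acetone solutions coated onto test tube walls and floor, giving 5 μg/cm^2 at 900 ppm. Five to ten adult ticks held per tube in the dark at room temperature for 48 h, then heated at 45-50° C for up to 5 min; efficacy is the percentage of dead or moribund ticks unable to climb away.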

Assay [2] relates to L1 larvae of the Australian sheep blowfly (Lucilia cuprina). Put plainly: Lucilia cuprina test (LUCICU). It counts as in vivo. The note with it: application rate 100 ppm; after 2 days. An outline of the steps: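 About 20 L1 larvae placed in a vessel with minced horsemeat plus compound (DMSO concentrate diluted with water to the desired concentration). Kill in % scored after 2 days, 100% meaning all larvae dead.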

The test system of assay [3] is bont tick nymphs (Amblyomma hebraeum). Particulars: after 48 h.
Assay [4] deals with Tick nymphs (Amblyomma hebraeum). Kind of assay: Amblyomma hebraeum test (AMBYHE), tick nymphs immersed. It counts as in vivo. Particulars: application rate 100 ppm; immersed one minute; after 42 days. How it is done: A. Amblyomma hebaraeum Test (AMBYHE)
(§1) Solvent: dimethyl sulphoxide
To produce a suitable preparation of active compound, 10 mg of active compound are mixed with 0.5 ml of dimethyl sulfoxide, and the concentrate is diluted with water to the desired concentration.
Tick nymphs (Amblyomma hebraeum) are placed into perforated plastic beakers and immersed in the desired concentration for one minute. The ticks are transferred on filter paper into a Petri dish and stored in a climate-controlled cabinet.
After 42 days, the kill in % is determined. 100% means that all of the ticks have been killed; 0% means that none of the ticks have been killed.

The test system of assay [5] is greenhouse red spider mite (Tetranychus urticae). Kind of assay: Tetranychus urticae spray test, OP-resistant (TETRUR). It counts as in vivo. Particulars: bean leaf discs, after 6 days. An outline of the steps:
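Bean leaf discs carrying all stages of OP-resistant Tetranychus urticae were sprayed with compound formulated in acetone/dimethylformamide and diluted in water with 1000 ppm alkylaryl polyglycol ether emulsifier. Mortality (% efficacy, 100% = all mites killed) scored after 6 days.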

Assay [6] deals with cattle ticks (Boophilus microplus) Parkhurst strain, SP-resistant. Kind of assay: Boophilus microplus dip test (BOOPMI Dip). The note with it: application rate 100 ppm, assessed after 7 days. It counts as in vivo. An outline of the steps:
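Adult engorged female SP-resistant Parkhurst ticks (8–10) were fully immersed in compound diluted in water from a DMSO solution, then kept in a climate-controlled room. After 7 days, fertile egg-laying was scored, with larval hatching checked at about 42 days; 100% efficacy means no fertile eggs.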

The subject of assay [7] is green peach aphid (Myzus persicae). Kind of assay: Myzus persicae spray test (MYZUPE). It counts as in vivo. Particulars: Chinese cabbage leaf discs, after 6 days. An outline of the steps: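 Chinese cabbage leaf discs infested with all aphid stages sprayed with compound in acetone/DMF with alkylaryl polyglycol ether emulsifier in water. Efficacy (% aphids killed; 100% all dead, 0% none) scored after 6 days.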

In assay [8] the test system is southern root-knot nematode (Meloidogyne incognita). Put plainly: Meloidogyne incognita test (MELGIN). It counts as in vivo. The note with it: application rate 20 ppm; lettuce; after 14 days. The method, then: K. Meloidogyne incognita Test (MELGIN)
Solvent: 125.0 parts by weight of acetone
To prepare a suitable active compound preparation, 1 part by weight of active compound is mixed with the stated amount of solvent and the concentrate is diluted with water to the desired concentration.
Vessels are filled with sand, active compound solution, an egg/larvae suspension of the southern root-knot nematode (Meloidogyne incognita) and lettuce seeds. The lettuce seeds germinate and the plants develop. On the roots, galls are formed.
After 14 days, the nematicidal efficacy in % is determined by the formation of galls. 100% means that no galls have been found; 0% means that the number of galls on the treated plants corresponds to the untreated control.

Assay [9] relates to larvae of the red stomach worm (Haemonchus contortus). Kind of assay: Haemonchus contortus test (HAEMCO). It counts as in vivo. Particulars: application rate 20 ppm; after 5 days. How it is done:
T8. Haemonchus contortus-test (HAEMCO)
as §1
To produce a suitable preparation of active compound, 10 mg of active compound are mixed with 0.5 ml of dimethyl sulphoxide, and the concentrate is diluted with “Ringer solution” to the desired concentration.
Vessels containing the active compound preparation of the desired concentration are populated with about 40 larvae of the red stomach worm (Haemonchus contortus).
After 5 days, the kill in % is determined 100% means that all of the larvae have been killed; 0% means that none of the larvae have been killed.

The structures appear in SMILES notation. “And” between values parts separate entries of the source, which are not always exact repeats. Equal values may be shown once.

As to `Cn1nc(C(F)(F)C(F)(F)F)c(C(F)(F)F)c1-n1cc(-c2ccc(Cl)c(C(=O)NC3(C(N)=S)CC3)c2)cn1` [Ic-11], the “efficacy (dead or moribund ticks)” value in assay [1] (application rate 1 μg/cm^2), in [1] (application rate 5 μg/cm^2) and in assay [3] was 100% throughout. Moreover, the “efficacy (kill in %)” value in assay [2] and in assay [4] was 100% each time. In addition, the efficacy in % is 90% in assay [5] (application rate 100 g/ha) and 100% in [7] (application rate 100 g/ha). Moreover, the “efficacy (laying of fertile eggs)” value in assay [6] turned out to be 100%.
Regarding `Cn1nc(C(F)(F)C(F)(F)F)c(C(F)(F)F)c1-n1cnc(-c2ccc(Cl)c(C(=O)NC3CC3)c2)c1` [Ib-3], the “efficacy (dead or moribund ticks)” value in [1] (application rate 1 μg/cm^2) was 100%; in assay [1] (application rate 5 μg/cm^2), 80%; in [3], 100% and 80%. Also, the “efficacy (kill in %)” value in assay [2] and in [4] was 100% throughout. For the same compound, the efficacy in % in assay [5] (application rate 100 g/ha) came to 100%. Also, the “efficacy (laying of fertile eggs)” value in assay [6] is 100%.
As for `Cc1ncc(-c2cnn(-c3c(C(F)(F)F)c(C(F)(F)C(F)(F)F)nn3C)c2)cc1C(=O)NC1CC1` [Ic-84], the “efficacy (dead or moribund ticks)” value in assay [1] (application rate 1 μg/cm^2), in assay [1] (application rate 5 μg/cm^2) and in [3] was 100% throughout. Besides, the “efficacy (kill in %)” value in assay [2] and in [4] was 100% each time. Moreover, the efficacy in % in [5] (application rate 500 g/ha) and in assay [7] (application rate 500 g/ha) was 100% throughout. The “efficacy (laying of fertile eggs)” value in assay [6] was 100%.
Take `Cn1nc(C(F)(F)C(F)(F)F)c(C(F)(F)F)c1-n1cc(-c2ccc(Cl)c(C(=O)NC3CC3)c2)cn1` [Ic-1, 2-Chloro-N-cyclopropyl-5-[2′-methyl-5′-(pentafluoroethyl)-4′-(trifluoromethyl)-2′H-1,3′-bipyrazol-4-yl]benzamide]: the “efficacy (dead or moribund ticks)” value in assay [1] (application rate 1 μg/cm^2), in [1] (application rate 5 μg/cm^2) and in assay [3] was 100% each time. In addition, the “efficacy (kill in %)” value in assay [2] was 100%; in assay [4], 100%; in assay [9], 80%. Moreover, the “nematicidal efficacy in % (formation of galls)” value in assay [8] is 90%. For the same compound, the figures for the efficacy in % in assay [5] (application rate 500 g/ha) and in [7] (application rate 500 g/ha) were 100% and 90%, respectively. The “efficacy (laying of fertile eggs)” value in assay [6] amounted to 100%.
In the case of `Cn1nc(C(F)(F)C(F)(F)F)c(C(F)(F)F)c1-n1cc(-c2ccc(F)c(C(=O)NC3CC3)c2)cn1` [Ic-37], the “efficacy (dead or moribund ticks)” value in assay [1] (application rate 1 μg/cm^2), in assay [1] (application rate 5 μg/cm^2) and in assay [3] was 100% each time. Moreover, the “efficacy (kill in %)” value in [2] and in assay [4] was 100% each time. Also, the efficacy in % in assay [5] (application rate 100 g/ha) worked out at 100%. Moreover, the “efficacy (laying of fertile eggs)” value in assay [6] is given as 100%.
Turning to `Cn1nc(C(F)(F)C(F)(F)F)c(C(F)(F)F)c1-n1ccc(-c2ccc(Cl)c(C(=O)NC3CC3)c2)c1` [Ia-2], the “efficacy (dead or moribund ticks)” value in assay [1] (application rate 1 μg/cm^2), in assay [1] (application rate 5 μg/cm^2) and in assay [3] was 100% in each case. Moreover, the “efficacy (kill in %)” value in assay [2] and in assay [4] was 100% in each case. Also, the efficacy in % in assay [5] (application rate 100 g/ha) is listed as 90%. Besides, the “efficacy (laying of fertile eggs)” value in assay [6] is 100%.
Turning to `Cn1nc(C(F)(F)C(F)(F)F)c(C(F)(F)F)c1-n1cc(-c2cc(Cl)c(Cl)c(C(=O)NC3CC3)c2)cn1` [Ic-94], the “efficacy (dead or moribund ticks)” value in [1] (application rate 1 μg/cm^2), in assay [1] (application rate 5 μg/cm^2) and in assay [3] was 100% throughout. Also, the “efficacy (kill in %)” value in assay [2] and in assay [4] was 100% each time. Also, the efficacy in % in assay [5] (application rate 500 g/ha) and in assay [7] (application rate 500 g/ha) was 100% each time. The “efficacy (laying of fertile eggs)” value in assay [6] is listed as 100%.
Turning to `Cn1nc(C(F)(F)C(F)(F)F)c(C(F)(F)F)c1-n1ccc(-c2ccc(Cl)c(C(=O)NC3(C#N)CC3)c2)c1` [Ia-1], the “efficacy (dead or moribund ticks)” value in assay [1] (application rate 1 μg/cm^2), in assay [1] (application rate 5 μg/cm^2) and in [3] was 100% throughout. Moreover, the “efficacy (kill in %)” value in assay [2] and in [4] was 100% throughout. The compound further showed an efficacy in % in assay [5] (application rate 100 g/ha) of 100%. Also, in [6], the “efficacy (laying of fertile eggs)” value stood at 100%.
`CCn1nc(C(F)(F)C(F)(F)F)c(C(F)(F)F)c1-n1cc(-c2ccc(Cl)c(C(=O)NC3CC3)c2)cn1` [Ic-16]: the “efficacy (dead or moribund ticks)” value in [1] (application rate 1 μg/cm^2), in assay [1] (application rate 5 μg/cm^2) and in assay [3] was 100% throughout. The “efficacy (kill in %)” value in [2] is 100%; in [4], 100%; in assay [9] it was 80%. The “efficacy (laying of fertile eggs)” value in [6] is 100%.
As for `Cn1nc(C(F)(F)C(F)(F)F)c(C(F)(F)F)c1-n1cc(-c2ccc(Cl)c(C(=O)NC3(C#N)CC3)c2)cn1` [Ic-2], the “efficacy (dead or moribund ticks)” value in assay [1] (application rate 1 μg/cm^2), in [1] (application rate 5 μg/cm^2) and in assay [3] was 100% each time. Besides, the “efficacy (kill in %)” value in [2] and in assay [4] was 100% each time. In addition, the efficacy in % in assay [5] (application rate 100 g/ha) and in [7] (application rate 100 g/ha) was 100% each time. Moreover, the “efficacy (laying of fertile eggs)” value in [6] is reported as 100%.
